Results on 33 compounds are retold here after ChEMBL document CHEMBL1201862, “PubChem BioAssay data set” (2004).

Calls of active or inactive are those of the source.

As usually defined, the AC50 is the midpoint of the concentration-response curve, whichever way the signal moves.

Targets include Cytochrome P450 3A4 (Homo sapiens, UniProt P08684); Cytochrome P450 2D6 (Homo sapiens, UniProt P10635); Cytochrome P450 2C9 (Homo sapiens, UniProt P11712).
Test [1] can be described thus: NIH-3T3 fibroblast cytotoxicity, dose response, cytotoxicity control, cell-based, fluorescence, Alamar Blue, secondary assay (AID 2327).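 Note: NIH-3T3 mouse fibroblasts cultured with fluconazole at 8 µg/mL.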 The test is classed as functional. Background: The colour change of resazurin is a common sign of viable cells or microbes.
Test [2] is described as follows: fluconazole-exposed Candida albicans growth modulators – fluorescence, retest, confirmation (AID 2467). The test is classed as functional, cell-based.
Test [3] can be described thus: Luminescence Cell-Based Dose Retest to Confirm Inhibitors of Cancer Stem Cells. [Related pubchem assays (depositor defined):AID2717, AID2721]. In kind it is functional. To be noted: Homo sapiens.
The target in test [4] is T1, Corticotropin-releasing factor receptor 2/Corticotropin-releasing factor-binding protein (Homo sapiens, UniProt P24387+Q13324).
T1 sequence (Q13324 whole entry): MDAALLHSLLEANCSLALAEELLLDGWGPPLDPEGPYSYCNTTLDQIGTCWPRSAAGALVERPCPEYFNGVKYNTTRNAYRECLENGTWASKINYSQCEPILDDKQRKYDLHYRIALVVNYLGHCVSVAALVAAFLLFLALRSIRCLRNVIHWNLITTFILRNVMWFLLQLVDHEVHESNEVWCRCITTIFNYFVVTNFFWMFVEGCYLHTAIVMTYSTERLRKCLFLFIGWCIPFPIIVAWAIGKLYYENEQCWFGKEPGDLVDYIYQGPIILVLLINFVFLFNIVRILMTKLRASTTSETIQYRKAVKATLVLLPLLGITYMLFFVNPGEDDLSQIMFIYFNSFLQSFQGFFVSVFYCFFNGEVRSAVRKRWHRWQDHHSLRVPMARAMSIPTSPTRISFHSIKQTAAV
T1 sequence (P24387 whole entry): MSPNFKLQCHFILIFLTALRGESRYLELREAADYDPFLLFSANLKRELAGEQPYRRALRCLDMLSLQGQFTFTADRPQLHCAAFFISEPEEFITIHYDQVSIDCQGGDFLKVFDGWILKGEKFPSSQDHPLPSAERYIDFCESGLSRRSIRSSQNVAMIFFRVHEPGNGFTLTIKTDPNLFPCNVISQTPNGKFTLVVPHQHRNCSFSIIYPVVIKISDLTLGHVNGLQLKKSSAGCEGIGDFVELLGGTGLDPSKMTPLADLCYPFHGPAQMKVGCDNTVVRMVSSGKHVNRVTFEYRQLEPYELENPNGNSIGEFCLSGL
Briefly: Dose Response confirmation of uHTS hits for small molecule antagonists of the CRF-binding protein and CRF-R2 receptor complex. To be noted: read-out: IC50_Mean. The test is classed as functional.

The target in test [5] is T1, Corticotropin-releasing factor receptor 2/Corticotropin-releasing factor-binding protein. Briefly: activators of CRF receptor 2 with binding protein – uHTS hits, confirmation (AID 602473). The following applies: read-out: EC50_Mean. In kind it is functional.
Another test deals with T2, Cytochrome P450 1A2 (Homo sapiens, UniProt P05177).
T2 sequence (P05177 whole entry): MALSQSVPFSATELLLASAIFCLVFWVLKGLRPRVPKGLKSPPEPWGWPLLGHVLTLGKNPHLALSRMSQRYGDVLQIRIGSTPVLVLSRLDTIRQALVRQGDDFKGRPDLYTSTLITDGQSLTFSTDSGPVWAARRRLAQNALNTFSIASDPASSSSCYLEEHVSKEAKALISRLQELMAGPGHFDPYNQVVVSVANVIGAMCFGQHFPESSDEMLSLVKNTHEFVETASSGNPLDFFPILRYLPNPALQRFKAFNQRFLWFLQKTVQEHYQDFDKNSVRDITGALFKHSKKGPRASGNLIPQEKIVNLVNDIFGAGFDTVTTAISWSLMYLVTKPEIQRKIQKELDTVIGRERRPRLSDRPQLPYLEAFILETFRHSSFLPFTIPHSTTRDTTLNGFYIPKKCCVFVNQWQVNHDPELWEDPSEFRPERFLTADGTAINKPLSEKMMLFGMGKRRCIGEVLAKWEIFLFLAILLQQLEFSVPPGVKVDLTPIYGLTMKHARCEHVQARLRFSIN

The target in the next test is T3, Streptokinase A (Streptococcus pyogenes serotype M1, UniProt P10520).
T3 sequence (P10520 whole entry): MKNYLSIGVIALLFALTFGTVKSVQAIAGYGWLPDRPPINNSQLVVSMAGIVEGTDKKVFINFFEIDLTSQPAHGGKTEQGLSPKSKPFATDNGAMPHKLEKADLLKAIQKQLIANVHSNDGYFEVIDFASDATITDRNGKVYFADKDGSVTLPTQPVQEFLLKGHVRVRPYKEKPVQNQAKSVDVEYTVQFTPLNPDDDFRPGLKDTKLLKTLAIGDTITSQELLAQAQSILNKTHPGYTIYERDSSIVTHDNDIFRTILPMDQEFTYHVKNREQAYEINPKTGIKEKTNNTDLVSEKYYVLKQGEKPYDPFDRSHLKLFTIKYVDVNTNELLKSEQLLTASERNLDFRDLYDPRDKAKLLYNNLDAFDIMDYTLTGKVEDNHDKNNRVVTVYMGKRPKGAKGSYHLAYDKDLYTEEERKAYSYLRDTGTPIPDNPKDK
The test can be described thus: viability-normalized secreted streptokinase activity reduction – plasminogen activation absorbance, OD405, dose response (AID 1914).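 Note: secreted streptokinase activity via plasminogen activation per viability signal from cell pellet.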 In kind it is functional, Streptococcus pyogenes M1 GAS.

Test [6] is described as follows: NIH3T3 cell viability loss – ATP luminescence, mouse fibroblasts, counter-screen, dose response (AID 2010).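 Note: cells exposed to compound for about 90 hours before reading.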 In kind it is functional, cell-based.
The test system of a further test is Streptococcus. Briefly: GAS UMAA2166 growth inhibition – luminescence, BacTiterGlo, counter-screen for streptokinase expression inhibitor project, dose response (AID 1915).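 Note: potency for reduction of bacterial viability or growth.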 The test is classed as functional, organism-based. For orientation: A counterscreen serves to expose hits that act by an unwanted route or on another target.
In test [7] the test system is Streptococcus sp. 'group A'. Briefly: Streptococcus pyogenes SK(-)GAS viability under kanamycin – luminescence, BacTiterGlo, confirmation, counter-screen for streptokinase expression inhibitor project, dose response (AID 1900). In kind it is functional, organism-based.
Test [8] can be described thus: Trypanosoma cruzi growth suppression in host cells – NIH3T3 host cells, beta-gal luminescence, confirmation (AID 2044).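 Note: intracellular parasites grown in NIH/3T3 mouse fibroblasts as host cells; luminescent beta-galactosidase reporter signal from transgenic T. cruzi replicating inside host cells; inhibitors lower the luminescence signal.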 The test is classed as functional, cell-based.

Sequence of Cytochrome P450 2C9 (P11712 whole entry): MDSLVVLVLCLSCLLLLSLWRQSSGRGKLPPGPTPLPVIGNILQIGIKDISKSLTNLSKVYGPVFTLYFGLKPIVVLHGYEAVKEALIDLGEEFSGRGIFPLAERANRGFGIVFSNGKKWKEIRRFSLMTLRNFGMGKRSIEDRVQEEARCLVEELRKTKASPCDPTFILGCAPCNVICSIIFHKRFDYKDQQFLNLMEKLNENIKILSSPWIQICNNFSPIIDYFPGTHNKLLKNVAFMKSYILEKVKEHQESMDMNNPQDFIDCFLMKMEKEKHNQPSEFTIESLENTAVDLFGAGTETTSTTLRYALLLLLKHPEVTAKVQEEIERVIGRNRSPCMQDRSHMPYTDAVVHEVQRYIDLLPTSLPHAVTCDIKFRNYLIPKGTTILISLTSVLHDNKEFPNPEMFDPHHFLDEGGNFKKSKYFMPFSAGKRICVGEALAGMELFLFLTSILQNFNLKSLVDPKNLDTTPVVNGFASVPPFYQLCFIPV
Sequence of Cytochrome P450 2D6 (P10635 whole entry): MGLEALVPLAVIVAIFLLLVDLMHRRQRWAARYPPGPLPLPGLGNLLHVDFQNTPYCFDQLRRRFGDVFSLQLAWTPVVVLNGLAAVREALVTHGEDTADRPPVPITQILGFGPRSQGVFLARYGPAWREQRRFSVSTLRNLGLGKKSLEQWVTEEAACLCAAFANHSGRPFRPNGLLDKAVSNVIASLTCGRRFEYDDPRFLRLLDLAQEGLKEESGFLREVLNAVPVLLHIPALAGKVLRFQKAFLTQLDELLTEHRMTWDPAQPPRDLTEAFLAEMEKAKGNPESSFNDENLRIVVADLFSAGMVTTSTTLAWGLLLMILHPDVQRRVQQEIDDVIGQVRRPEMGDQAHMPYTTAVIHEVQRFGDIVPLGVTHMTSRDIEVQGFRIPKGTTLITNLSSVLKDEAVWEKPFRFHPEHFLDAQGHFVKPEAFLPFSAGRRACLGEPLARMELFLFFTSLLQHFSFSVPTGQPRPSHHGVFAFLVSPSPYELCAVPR
Sequence of Cytochrome P450 3A4 (P08684 whole entry): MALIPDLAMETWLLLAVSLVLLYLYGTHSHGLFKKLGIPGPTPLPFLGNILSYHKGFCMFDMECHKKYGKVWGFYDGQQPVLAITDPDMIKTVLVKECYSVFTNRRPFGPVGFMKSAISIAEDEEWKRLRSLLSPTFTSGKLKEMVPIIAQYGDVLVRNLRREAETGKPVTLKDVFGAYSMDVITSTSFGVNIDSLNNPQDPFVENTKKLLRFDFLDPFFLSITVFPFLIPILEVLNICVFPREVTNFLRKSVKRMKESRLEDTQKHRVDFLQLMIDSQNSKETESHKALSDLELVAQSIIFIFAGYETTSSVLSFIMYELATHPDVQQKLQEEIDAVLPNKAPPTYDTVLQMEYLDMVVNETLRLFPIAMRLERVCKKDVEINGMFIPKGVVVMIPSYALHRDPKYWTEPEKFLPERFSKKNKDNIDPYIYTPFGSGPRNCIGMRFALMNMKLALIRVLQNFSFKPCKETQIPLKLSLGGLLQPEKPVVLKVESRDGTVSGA

For the compound `O=C1C(Cl)=C(Sc2nnc3c4ccccc4c4ccccc4c3n2)C(=O)c2ccccc21`, the AC50 was 5.01 µM (inconclusive) at Cytochrome P450 3A4, 3.98 µM (inconclusive) at Cytochrome P450 2D6 and 3.98 µM (inconclusive) on Cytochrome P450 2C9.

For the compound `COc1ccccc1-c1nccc(NCc2cccnc2)n1`, the AC50 at Cytochrome P450 2D6 was 20 µM (inconclusive). For `CCOC(=O)c1ccc(NC(=O)c2ccc(CO)c(C(=O)NC3CCN(C(=O)OCC)CC3)c2)cc1`, the figures for the EC50 in test [1] and in [2] were > 160 µM (inactive) and > 38 µM (not active), respectively. The like results for `CCOC(=O)C1CCN(CCC(=O)Nc2ccc(F)cc2)CC1` were, in that order, > 150 µM (inactive) and 5.18 µM (active). For `COc1ccc(C(=O)NCC2(c3ccccc3)CCCC2)c(OC)c1`, the AC50 in test [3] is 1.22 µM (active).

For the compound `Cc1cc(C)n2nc(-c3sccc3-n3cccc3)cc2n1`, the results for the AC50 on Cytochrome P450 3A4 and at Cytochrome P450 2D6 were 3.55 µM (inconclusive) and 35.5 µM (inconclusive), respectively. As to `Cc1ccc(C(=O)NC(=C(Cl)Cl)S(=O)(=O)c2ccccc2)cc1`, the AC50 in test [3] was 3.29 µM (active). With `CCOC(=O)C1CCN(c2cc3c(cc2NC(=O)c2cc(OC)ccc2Br)n(C)c(=O)n3C)CC1`, the IC50 in [4] was > 47.1 µM (inactive). The EC50 in test [5] was > 53 µM (inactive).

Regarding `Cc1c(/C=C2\SC(=O)N(CC(=O)Nc3ccc4c(c3)OCO4)C2=O)c2ccccc2n1C`, the AC50 at Cytochrome P450 3A4 was 0.2 µM (inconclusive); on Cytochrome P450 2D6, 2.82 µM (inconclusive); on Cytochrome P450 1A2 it was 3.16 µM (inconclusive). For `COc1ccccc1N1CCN(Cc2cc(=O)n3ccsc3n2)CC1`, at Cytochrome P450 2D6, the AC50 is 22.4 µM (inconclusive).

With `CCCCCCCCCC(=O)NNC(=O)c1c(O)c2ccccc2n(CC)c1=O`, the EC50 in test [1] is > 160 µM (inactive); in [2], > 38 µM (not active).

As for `COC(=O)N1CCC2(CCCN(Cc3nccs3)C2)CC1`, the AC50 on Cytochrome P450 3A4 is 15.8 µM (inconclusive); on Cytochrome P450 2D6, 12.6 µM (inconclusive). For the compound `COc1cccc(OC)c1C(=O)NC(=S)N1CCN(c2ccc(C(F)(F)F)cc2[N+](=O)[O-])CC1`, the AC50 on Cytochrome P450 2D6 was 20 µM (inconclusive). For `Cc1nc2ccc(NC(=O)COc3ccccc3)cc2s1`, the values for the EC50 in test [1] and in test [2] were > 150 µM (inactive) and > 38 µM (not active), respectively.

With `CCNc1nc(NCC)n2c(SCc3ccc(F)cc3)nnc2n1`, the IC50 in test [4] is > 47.1 µM (inactive). Also, in test [5], the EC50 was > 53 µM (inactive).

For the compound `COc1cc(OC)cc(C(=O)NNC(=O)Cc2ccc(OC)c(S(=O)(=O)N3CCOCC3)c2)c1`, the EC50 in test [1] is > 150 µM (inconclusive); in test [2] it was > 38 µM (not active).

On to `COc1cccc(C(=O)/C=C/c2ccc(N3CCCCC3)c([N+](=O)[O-])c2)c1`, for which, in test [3], the half-maximal activity concentration (AC50) was 7.86 µM (active). On to `O=S(=O)(Nc1ccc2c(c1)CCC2)c1cccs1`, for which, in test [4], the IC50 is > 47.1 µM (inactive). Further, in test [5], the EC50 was > 53 µM (inactive). For `COc1ccc(S(=O)(=O)Nc2nc3ccccc3nc2NCC2CCCO2)cc1` (centres undefined), in that order: > 47.1 µM (inactive) and > 53 µM (inactive). In the case of `COC(=O)c1ccc(CSc2nc3cc(Cl)ccc3s2)o1`, the AC50 on Cytochrome P450 3A4 was 25.1 µM (inconclusive); at Cytochrome P450 2D6, 20 µM (inconclusive). Take `CS(=O)(=O)Nc1ccc(Nc2c3ccccc3nc3ccccc23)cc1`: the values for the AC50 at Cytochrome P450 2D6 and at Cytochrome P450 2C9 were 3.16 µM (inconclusive) and 6.31 µM (inconclusive), respectively. For `c1ccc(N(c2ccccc2)c2nc(N3CCCC3)nc(-n3ccnc3)n2)cc1`, the EC50 is > 150 µM (not active) at Streptokinase A; > 60 µM (not active) in [6]; 5.49 µM (active) in the test with Streptococcus; 5.55 µM (active) in test [7]; 1.84 µM (active) in test [8]. Also, the AC50 in test [3] is 5.16 µM (active). Consider `O=C(O)CN1CCN(Cc2ccccc2)C1=O`, for which the results for the AC50 on Cytochrome P450 2D6 and on Cytochrome P450 2C9 were 15.8 µM (inconclusive) and 11.2 µM (inconclusive), respectively.

With `CCCCn1c(CN2CCN(C(=O)OCC)CC2)nc2c1c(=O)n(C)c(=O)n2C`, the values for the EC50 in test [1] and in [2] were > 150 µM (inactive) and > 38 µM (not active), respectively. With `COC(=O)c1sccc1NS(=O)(=O)c1ccccc1`, the IC50 in test [4] was > 47.1 µM (inactive). Besides, the EC50 in test [5] is > 53 µM (inactive).

Regarding `C=C1C(C(=O)Nc2ccccc2)C1C(=O)Nc1ccccc1` (centres undefined), the IC50 in test [4] was > 47.1 µM (inactive). In [5], the EC50 was > 53 µM (inactive). In the case of `COc1ccc(/C=N/NC(=S)Nc2ccccc2[N+](=O)[O-])cc1O`, the AC50 in [3] is 4.87 µM (active). Consider `CCOc1ccc(/C=N/NC(=O)C(C)N(c2ccc(OC)cc2)S(C)(=O)=O)cc1OCC` (centres undefined), for which, in test [4], the IC50 was > 47.1 µM (inactive). Also, in [5], the EC50 was > 53 µM (inactive). For `CCOc1ccccc1NC(=O)COC(=O)C1COc2ccccc2O1` (centres undefined), in that order: > 47.1 µM (inactive) and > 53 µM (inactive). With `Clc1ccc(Sc2ccc(/C=N/n3cnnc3)o2)cc1`, at Cytochrome P450 2D6, the AC50 is 15.8 µM (inconclusive). For the compound `c1cc(-c2sc(-c3ccncc3)c(-c3ccncc3)c2-c2ccncc2)ccn1`, the AC50 on Cytochrome P450 2D6 and on Cytochrome P450 1A2 was 3.16 µM (inconclusive) in each case. On to `O=C1NC(Cc2c[nH]c3ccccc23)C(=O)N1Cc1cccc2ccccc12` (centres undefined), for which, in test [4], the IC50 is > 47.1 µM (inactive). For the same compound, the EC50 in test [5] was > 53 µM (inactive).

In the case of `CC[C@H](NC(C)C)[C@H](O)c1ccc(O)c2[nH]c(=O)ccc12` [PROCATEROL], the values for the AC50 on Cytochrome P450 2D6 and on Cytochrome P450 1A2 were 31.6 µM (inconclusive) and 39.8 µM (inconclusive), respectively.
